For this assay, the system named is 328373-195-R-J1-PDC complex spheroids, viability % test/control. As to the kind of experiment: Anticancer human tumor 328373-195-R-J1-PDC patient-derived head and neck squamous carcinoma cell line growth inhibition [CLK]. As to conditions: for viability, T/C: stronger effect = lower value. The procedure, abridged: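 Multi-cell-type spheroids combined patient-derived tumor cells with HUVEC endothelial cells and human mesenchymal stem cells. Paired agents were dosed in half-log steps down from about clinical Cmax, or from 10 microM where Cmax was unknown.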

Where [1] appears, read: curve of first compound, second compound 0.0316 µM.
Setting [2] is: curve of first compound, second compound 0.1 µM.
[3] abbreviates: curve of first compound, second compound 0.316 µM.
The mark [4] stands for this setting: curve of first compound, second compound 1 µM.
Setting [5] is: curve of first compound, second compound 3.16 µM.
[6] abbreviates: curve of first compound, second compound 10 µM.
Setting [7] is: second compound 0.0316 µM, first compound 0.0316 µM.
The mark [8] stands for this setting: second compound 0.0316 µM, first compound 0.1 µM.
[9] abbreviates: second compound 0.0316 µM, first compound 0.316 µM.
Where [10] appears, read: second compound 0.0316 µM, first compound 1 µM.
Setting [11] is: second compound 0.0316 µM, first compound 3.16 µM.
The mark [12] stands for this setting: second compound 0.0316 µM, first compound 10 µM.
[13] abbreviates: second compound 0.1 µM, first compound 0.0316 µM.
Setting [14] is: second compound 0.1 µM, first compound 0.1 µM.
The mark [15] stands for this setting: second compound 0.1 µM, first compound 0.316 µM.
Setting [16] is: second compound 0.1 µM, first compound 1 µM.
The mark [17] stands for this setting: second compound 0.1 µM, first compound 3.16 µM.
The mark [18] stands for this setting: second compound 0.1 µM, first compound 10 µM.
The mark [19] stands for this setting: second compound 0.316 µM, first compound 0.0316 µM.
[20] abbreviates: second compound 0.316 µM, first compound 0.1 µM.
Where [21] appears, read: second compound 0.316 µM, first compound 0.316 µM.
The mark [22] stands for this setting: second compound 0.316 µM, first compound 1 µM.
The mark [23] stands for this setting: second compound 0.316 µM, first compound 3.16 µM.
Where [24] appears, read: second compound 0.316 µM, first compound 10 µM.
The mark [25] stands for this setting: second compound 1 µM, first compound 0.0316 µM.
Where [26] appears, read: second compound 1 µM, first compound 0.1 µM.
[27] abbreviates: second compound 1 µM, first compound 0.316 µM.
The mark [28] stands for this setting: second compound 1 µM, first compound 1 µM.
Setting [29] is: second compound 1 µM, first compound 3.16 µM.
Where [30] appears, read: second compound 1 µM, first compound 10 µM.
The mark [31] stands for this setting: second compound 3.16 µM, first compound 0.0316 µM.
Setting [32] is: second compound 3.16 µM, first compound 0.1 µM.
Where [33] appears, read: second compound 3.16 µM, first compound 0.316 µM.
The mark [34] stands for this setting: second compound 3.16 µM, first compound 1 µM.
Setting [35] is: second compound 3.16 µM, first compound 3.16 µM.
The mark [36] stands for this setting: second compound 3.16 µM, first compound 10 µM.
Setting [37] is: second compound 10 µM, first compound 0.0316 µM.
Where [38] appears, read: second compound 10 µM, first compound 0.1 µM.
[39] abbreviates: second compound 10 µM, first compound 0.316 µM.
The mark [40] stands for this setting: second compound 10 µM, first compound 1 µM.
The mark [41] stands for this setting: second compound 10 µM, first compound 3.16 µM.
[42] abbreviates: second compound 10 µM, first compound 10 µM.

“And” between values parts separate entries of the source, which are not always exact repeats. Identical values can stand only once.

One may read the IC50 as the concentration that inhibits the measured activity by half. Usually viability, T/C stands for the result in the treated group divided by that in the control group, in per cent.
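Note: spheroids exposed to the agents for 7 days.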

In the case of `CCCS(=O)(=O)Nc1ccc(F)c(C(=O)c2c[nH]c3ncc(-c4ccc(Cl)cc4)cc23)c1F` + CN1CCN(c2cc(C(=O)Nc3cc4cc(-c5cnn(C)c5)ccc4cn3)ccn2)CC1, the IC50 is greater than 10 µM under setting [1]; greater than 10 µM under setting [2]; less than 0.0316 µM under setting [3]; less than 0.0316 µM under setting [4]; less than 0.0316 µM under setting [5]; less than 0.0316 µM under setting [6]. Moreover, the viability, T/C runs as follows: under setting [7], 102%; under setting [8], 91.4%; under setting [9], 109%; under setting [10], 100%; under setting [11], 101%; under setting [12], 81.6%. The viability, T/C reads like this: under setting [13], 78.8%; under setting [14], 82.2%; under setting [15], 83.7%; under setting [16], 86.6%; under setting [17], 96.5%; under setting [18], 81.7%. For the same compound, the viability, T/C reads like this: under setting [19], 35.8%; under setting [20], 38.5%; under setting [21], 34.8%; under setting [22], 40%; under setting [23], 34.7%; under setting [24], 28.9%. Also, the viability, T/C by setting is: under setting [25], 2.19%; under setting [26], 1.09%; under setting [27], 2.63%; under setting [28], 2.9%; under setting [29], 1.71%; under setting [30], 0.31%. In addition, the viability, T/C runs as follows: under setting [31], 0.65%; under setting [32], 1.41%; under setting [33], 2.96%; under setting [34], 1.01%; under setting [35], 1.06%; under setting [36], 0.14%. In addition, the viability, T/C is, setting by setting: under setting [37], 1.51%; under setting [38], 3.41%; under setting [39], 0.81%; under setting [40], 2.54%; under setting [41], 2.37%; under setting [42], 0.63%.
On to `C=C(F)C(=O)N1CCN(c2nc(OCC3CCCN3C)nc3c2CCN(c2cccc4cccc(Cl)c24)C3)CC1CC#N` (centres undefined) + CN1CCN(c2cc(C(=O)Nc3cc4cc(-c5cnn(C)c5)ccc4cn3)ccn2)CC1, for which the IC50 is, setting by setting: under setting [1], 4.08 µM; under setting [2], 3.57 µM; under setting [3], less than 0.0316 µM; under setting [4], less than 0.0316 µM; under setting [5], less than 0.0316 µM; under setting [6], less than 0.0316 µM. Also, the viability, T/C reads like this: under setting [7], 103%; under setting [8], 99.5%; under setting [9], 96.9%; under setting [10], 91.5%; under setting [11], 63%; under setting [12], 3.75%. The viability, T/C is 80.5% under setting [13]; 90.8% under setting [14]; 81.7% under setting [15]; 81.6% under setting [16]; 55.7% under setting [17]; 1.67% under setting [18]. The viability, T/C runs as follows: under setting [19], 35.2%; under setting [20], 38.1%; under setting [21], 34.7%; under setting [22], 34.3%; under setting [23], 22.8%; under setting [24], 3.9%. The viability, T/C is 0.25% under setting [25]; 4.59% under setting [26]; 1.43% under setting [27]; 0.34% under setting [28]; 1.34% under setting [29]; 0.52% under setting [30]. Further, the viability, T/C under setting [31] was 2.92%; the viability, T/C under setting [32] was 0.86%; the viability, T/C under setting [33] is 1.39%; the viability, T/C under setting [34] is 1.82%; the viability, T/C under setting [35] is 5.78%; the viability, T/C under setting [36] is 0.76%. Besides, the viability, T/C is 4.95% under setting [37]; 2.58% under setting [38]; 0.33% under setting [39]; 0.79% under setting [40]; 1.9% under setting [41]; 0.96% under setting [42].
With `O=c1[nH]cc(F)c(=O)[nH]1`, the viability, T/C (compound 0.0316 µM) was 54% and 64.5%; the viability, T/C (compound 0.1 µM) is 14.5% and 17.4%; the viability, T/C (compound 0.316 µM) was 11.9% and 9.36%; the viability, T/C (compound 1 µM) is 6.67% and 7.09%; the viability, T/C (compound 3.16 µM) is 8.84% and 8.77%; the viability, T/C (compound 10 µM) is 14.9% and 15.6%. Also, the IC50 (curve of compound) is 0.0356 µM and 0.0449 µM.
As for `C=CC(=O)N1CCN(c2nc(=O)n(-c3c(C)ccnc3C(C)C)c3nc(-c4c(O)cccc4F)c(F)cc23)C(C)C1` (centres undefined), the viability, T/C is 84.3% and 93.1% (compound 0.0316 µM); 89.4% and 95.1% (compound 0.1 µM); 93.2% and 106% (compound 0.316 µM); 98.8% and 87.5% (compound 1 µM); 96.5% and 100% (compound 3.16 µM); 77.4% and 74.5% (compound 10 µM). In addition, the concentration for half-maximal inhibition (IC50) (curve of compound) is greater than 10 µM.
On to `COc1cccc2c1C(=O)c1c(O)c3c(c(O)c1C2=O)CC(O)(C(=O)CO)CC3OC1CC(N)C(O)C(C)O1` (centres undefined) + CN1CCN(c2cc(C(=O)Nc3cc4cc(-c5cnn(C)c5)ccc4cn3)ccn2)CC1, for which the IC50 under setting [1] is less than 0.0316 µM; the IC50 under setting [2] is less than 0.0316 µM; the IC50 under setting [3] is less than 0.0316 µM; the IC50 under setting [4] is less than 0.0316 µM; the half-inhibitory concentration (IC50) under setting [5] is less than 0.0316 µM; the IC50 under setting [6] is less than 0.0316 µM. Further, the viability, T/C by setting is: under setting [7], 13.4%; under setting [8], 8.66%; under setting [9], 2.1%; under setting [10], 0.22%; under setting [11], 2.55%; under setting [12], 1.06%. In addition, the viability, T/C is 14.7% under setting [13]; 5.57% under setting [14]; 0.44% under setting [15]; 0.19% under setting [16]; 0.12% under setting [17]; 1.87% under setting [18]. The viability, T/C was 13.2% under setting [19]; 2.4% under setting [20]; 3.38% under setting [21]; 1.11% under setting [22]; 0.1% under setting [23]; 2% under setting [24]. In addition, the viability, T/C is 1.05% under setting [25]; 2.51% under setting [26]; 4.63% under setting [27]; 0.09% under setting [28]; 1.51% under setting [29]; 0.08% under setting [30]. Moreover, the viability, T/C runs as follows: under setting [31], 0.07%; under setting [32], 4.11%; under setting [33], 0.93%; under setting [34], 0.07%; under setting [35], 1.76%; under setting [36], 0.11%. Further, the viability, T/C under setting [37] is 0.1%; the viability, T/C under setting [38] was 0.75%; the viability, T/C under setting [39] is 0.41%; the viability, T/C under setting [40] is 0.11%; the viability, T/C under setting [41] was 2.76%; the viability, T/C under setting [42] is 0.61%.
With `CC1(C)CCC(CN2CCN(c3ccc(C(=O)NS(=O)(=O)c4ccc(NCC5CCOCC5)c([N+](=O)[O-])c4)c(Oc4cnc5[nH]ccc5c4)c3)CC2)=C(c2ccc(Cl)cc2)C1`, the viability, T/C reads like this: (compound 0.0316 µM) 103% and 85%; (compound 0.1 µM) 88.8% and 76.7%; (compound 0.316 µM) 95.1% and 98.1%; (compound 1 µM) 90% and 84%; (compound 3.16 µM) 81.7% and 74.5%; (compound 10 µM) 25.7% and 8.47%. Also, the IC50 (curve of compound) is 6.04 µM and 4.85 µM.
`NC(=O)C(=Cn1cnc(-c2cc(C(F)(F)F)cc(C(F)(F)F)c2)n1)c1cncnc1`: the viability, T/C reads like this: (compound 0.00949 µM) 76.3% and 71.8%; (compound 0.03 µM) 38.3% and 37.8%; (compound 0.0949 µM) 2.22% and 0.66%; (compound 0.3 µM) 1.05% and 0.37%; (compound 0.949 µM) 0.16% and 0.11%; (compound 3 µM) 1.51% and 0.06%. Moreover, the IC50 (curve of compound) was 0.0211 µM and 0.0198 µM.
As for `CNC(=O)c1ccc(Nc2nc(OC3CCCC3)c3c(-c4ccc5nc(C)oc5c4)c[nH]c3n2)c(OC)c1`, the viability, T/C is 12.1% [middle of 12 runs] (compound 0.1 µM); 10.1% [middle of 11 runs] (compound 0.316 µM); 9.35% [middle of 12 runs] (compound 1 µM); 9.17% [middle of 12 runs] (compound 3.16 µM); 11.8% [middle of 12 runs] (compound 10 µM).
